Test results from PubChem BioAssay AID1963873 (Molecular Pharmacology Branch, DTP, NCI, 2024).

System: 276233-004-R-J1-PDC KRAS spheroids with HUVEC/MSC, viability
Test: Anticancer human tumor 276233-004-R-J1-PDC patient-derived colon adenocarcinoma cell line growth inhibition [KRAS2]
Conditions: for viability, T/C: stronger effect = lower value; active = viability on the fitted dose curve at most 10% of control; inactive = the rest
Summary of the method: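 KRAS-mutant tumor cells were grown as spheroids with HUVEC endothelial cells and human MSCs as stroma. Targeted agents were tested alone and with KRAS pathway inhibitors. Doses started at or near clinical Cmax, or 10 microM, descending half-log.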

[1] = curve of first compound, second compound 0.1 µM
[2] = curve of first compound, second compound 0.316 µM
[3] = curve of first compound, second compound 1 µM
[4] = curve of first compound, second compound 3.16 µM
[5] = curve of first compound, second compound 10 µM
[6] = second compound 0.1 µM, first compound 0.0316 µM
[7] = second compound 0.1 µM, first compound 0.1 µM
[8] = second compound 0.1 µM, first compound 0.316 µM
[9] = second compound 0.1 µM, first compound 1 µM
[10] = second compound 0.1 µM, first compound 3.16 µM
[11] = second compound 0.1 µM, first compound 10 µM
[12] = second compound 0.316 µM, first compound 0.0316 µM
[13] = second compound 0.316 µM, first compound 0.1 µM
[14] = second compound 0.316 µM, first compound 0.316 µM
[15] = second compound 0.316 µM, first compound 1 µM
[16] = second compound 0.316 µM, first compound 3.16 µM
[17] = second compound 0.316 µM, first compound 10 µM
[18] = second compound 1 µM, first compound 0.0316 µM
[19] = second compound 1 µM, first compound 0.1 µM
[20] = second compound 1 µM, first compound 0.316 µM
[21] = second compound 1 µM, first compound 1 µM
[22] = second compound 1 µM, first compound 3.16 µM
[23] = second compound 1 µM, first compound 10 µM
[24] = second compound 3.16 µM, first compound 0.0316 µM
[25] = second compound 3.16 µM, first compound 0.1 µM
[26] = second compound 3.16 µM, first compound 0.316 µM
[27] = second compound 3.16 µM, first compound 1 µM
[28] = second compound 3.16 µM, first compound 3.16 µM
[29] = second compound 3.16 µM, first compound 10 µM
[30] = second compound 10 µM, first compound 0.0316 µM
[31] = second compound 10 µM, first compound 0.1 µM
[32] = second compound 10 µM, first compound 0.316 µM
[33] = second compound 10 µM, first compound 1 µM
[34] = second compound 10 µM, first compound 3.16 µM
[35] = second compound 10 µM, first compound 10 µM
[36] = second compound 0.1 µM, first compound 0.01 µM
[37] = second compound 0.316 µM, first compound 0.01 µM
[38] = second compound 1 µM, first compound 0.01 µM
[39] = second compound 3.16 µM, first compound 0.01 µM
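Note: cells exposed to agents for seven days before viability read.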
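Throughout, for viability, T/C: 100% = DMSO vehicle control wells and lower values mean fewer viable cells.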

COc1cc(Nc2ncc3c(n2)-c2ccc(Cl)cc2C(c2c(F)cccc2OC)=NC3)ccc1C(=O)O + C=CC(=O)N1CCN(c2nc(=O)n(-c3c(C)ccnc3C(C)C)c3nc(-c4c(O)cccc4F)c(F)cc23)C(C)C1
> 10 µM: IC50 [1] | IC50 [2] | IC50 [3] | IC50 [4] | IC50 [5]
inactive: viability, T/C [6] 132% | viability, T/C [7] 118% | viability, T/C [8] 117% | viability, T/C [9] 104% | viability, T/C [10] 116% | viability, T/C [11] 88.3% | viability, T/C [12] 112% | viability, T/C [13] 110% | viability, T/C [14] 117% | viability, T/C [15] 111% | viability, T/C [16] 99% | viability, T/C [17] 97% | viability, T/C [18] 102% | viability, T/C [19] 118% | viability, T/C [20] 108% | viability, T/C [21] 115% | viability, T/C [22] 110% | viability, T/C [23] 96.5% | viability, T/C [24] 139% | viability, T/C [25] 125% | viability, T/C [26] 110% | viability, T/C [27] 105% | viability, T/C [28] 96.3% | viability, T/C [29] 89.1% | viability, T/C [30] 88.3% | viability, T/C [31] 107% | viability, T/C [32] 87.4% | viability, T/C [33] 91.6% | viability, T/C [34] 79.3% | viability, T/C [35] 86.5%

Cn1ncnc1[C@H]1c2n[nH]c(=O)c3cc(F)cc(c23)N[C@@H]1c1ccc(F)cc1 + C=CC(=O)N1CCN(c2nc(OCC3CCCN3C)nc3c2CCN(c2cccc4cccc(C)c24)C3)CC1CC#N
> 0.1 µM: IC50 (curve of first compound, second compound 0.0316 µM) | IC50 [1] | IC50 [2] | IC50 [3] | IC50 [4]
inactive: viability, T/C (second compound 0.0316 µM, first compound 0.000316 µM) 111% | viability, T/C (second compound 0.0316 µM, first compound 0.001 µM) 107% | viability, T/C (second compound 0.0316 µM, first compound 0.00316 µM) 88% | viability, T/C (second compound 0.0316 µM, first compound 0.01 µM) 119% | viability, T/C (second compound 0.0316 µM, first compound 0.0316 µM) 97.7% | viability, T/C (second compound 0.0316 µM, first compound 0.1 µM) 92.8% | viability, T/C (second compound 0.1 µM, first compound 0.000316 µM) 107% | viability, T/C (second compound 0.1 µM, first compound 0.001 µM) 113% | viability, T/C (second compound 0.1 µM, first compound 0.00316 µM) 103% | viability, T/C [36] 98% | viability, T/C [6] 77.3% | viability, T/C [7] 86.3% | viability, T/C (second compound 0.316 µM, first compound 0.000316 µM) 100% | viability, T/C (second compound 0.316 µM, first compound 0.001 µM) 107% | viability, T/C (second compound 0.316 µM, first compound 0.00316 µM) 113% | viability, T/C [37] 115% | viability, T/C [12] 85.5% | viability, T/C [13] 91.6% | viability, T/C (second compound 1 µM, first compound 0.000316 µM) 99% | viability, T/C (second compound 1 µM, first compound 0.001 µM) 118% | viability, T/C (second compound 1 µM, first compound 0.00316 µM) 105% | viability, T/C [38] 116% | viability, T/C [18] 88.9% | viability, T/C [19] 110% | viability, T/C (second compound 3.16 µM, first compound 0.000316 µM) 74.9% | viability, T/C (second compound 3.16 µM, first compound 0.001 µM) 77.6% | viability, T/C (second compound 3.16 µM, first compound 0.00316 µM) 57.1% | viability, T/C [39] 52.6% | viability, T/C [24] 65% | viability, T/C [25] 72%

CC(=O)OC12COC1CC(O)C1(C)C(=O)C(O)C3=C(C)C(OC(=O)C(O)C(NC(=O)OC(C)(C)C)c4ccccc4)CC(O)(C(OC(=O)c4ccccc4)C21)C3(C)C (stereo not drawn) + C=CC(=O)N1CCN(c2nc(=O)n(-c3c(C)ccnc3C(C)C)c3nc(-c4c(O)cccc4F)c(F)cc23)C(C)C1
inactive: viability, T/C [36] 87% | viability, T/C [6] 96.5% | viability, T/C [7] 80.4% | viability, T/C [8] 77.4% | viability, T/C [9] 86.3% | viability, T/C [10] 97.8% | viability, T/C [37] 100% | viability, T/C [12] 109% | viability, T/C [13] 79.4% | viability, T/C [14] 70.5% | viability, T/C [15] 90.1% | viability, T/C [16] 89.5% | viability, T/C [38] 90.7% | viability, T/C [18] 85.3% | viability, T/C [19] 71.6% | viability, T/C [20] 75% | viability, T/C [21] 88% | viability, T/C [22] 99.2% | viability, T/C [39] 95.5% | viability, T/C [24] 84.9% | viability, T/C [25] 77.8% | viability, T/C [26] 92.8% | viability, T/C [27] 79.5% | viability, T/C [28] 90.2% | viability, T/C (second compound 10 µM, first compound 0.01 µM) 79.2% | viability, T/C [30] 72.2% | viability, T/C [31] 97.6% | viability, T/C [32] 64.2% | viability, T/C [33] 103% | viability, T/C [34] 129%
> 3.16 µM: IC50 [1] | IC50 [2] | IC50 [3] | IC50 [4] | IC50 [5]

CNCc1ccccc1-c1csc(C(C)Nc2nc(C)nc3cc(OC)c(OC)cc23)c1 (stereo not drawn)
1.67 µM [middle of 5 runs]: IC50 (compound alone, run of 07/26/2021)
1.25 µM [middle of 4 runs]: IC50 (compound alone, run of 07/19/2021)
active: viability, T/C (compound 10 µM) 1.13% [middle of 15 runs]

CC(C)NCC(C(=O)N1CCN(c2ncnc3c2C(C)CC3O)CC1)c1ccc(Cl)cc1 (stereo not drawn) + C=CC(=O)N1CCN(c2nc(=O)n(-c3c(C)ccnc3C(C)C)c3nc(-c4c(O)cccc4F)c(F)cc23)C(C)C1
> 10 µM: IC50 [1] | IC50 [2] | IC50 [3] | IC50 [5]
7.17 µM: IC50 [4]
inactive: viability, T/C [6] 109% | viability, T/C [7] 128% | viability, T/C [8] 91.3% | viability, T/C [9] 74.2% | viability, T/C [10] 73.6% | viability, T/C [11] 70.5% | viability, T/C [12] 89% | viability, T/C [13] 71.7% | viability, T/C [14] 101% | viability, T/C [15] 80% | viability, T/C [16] 77.3% | viability, T/C [17] 63.1% | viability, T/C [18] 106% | viability, T/C [19] 102% | viability, T/C [20] 93.8% | viability, T/C [21] 76.9% | viability, T/C [22] 81.1% | viability, T/C [23] 60.7% | viability, T/C [24] 125% | viability, T/C [25] 103% | viability, T/C [26] 67.4% | viability, T/C [27] 66.5% | viability, T/C [28] 59.3% | viability, T/C [29] 57.5% | viability, T/C [30] 75% | viability, T/C [31] 79.1% | viability, T/C [32] 58.9% | viability, T/C [33] 66.8% | viability, T/C [34] 85.5% | viability, T/C [35] 64.4%
